Data reported in patent publication US9493466B2, “Treatment of cancer with TOR kinase inhibitors” (Signal Pharmaceuticals, LLC, priority 2011, dated 2016).

System: U87MG tumors
Assay: U87MG human glioblastoma xenograft model (Compound 1)
Assay type: in vivo, SCID mice
Conditions: positive control, 4 mg/kg Q3D IP, 18 days
Description: U87MG Human Glioblastoma Xenograft Model (Compound 1). Efficacy Studies: Groups of female SCID mice bearing U87MG tumors (n=8-10/group) were dosed orally with vehicle or Compound 1 throughout the study, starting when tumor volumes reached approximately 200 mm^3. The twice daily (BID) dose groups were dosed with a 10-hour separation between morning and evening doses. In the positive control group, rapamycin was administered Q3D via intraperitoneal (IP) route. At the end of each study, plasma and/or tumor samples were collected.
Cell Line and Culture. U87MG cell line was obtained from American Tissue Culture Collection (ATCC) (Gaithersberg, Md.) and grown in growth medium containing MEM, 2 mM L-glutamine, 0.1 mM non-essential amino acids and 1 mM sodium pyruvate and 10% fetal bovine serum (FBS). The cells were detached from tissue culture flasks using trypsin-EDTA. After centrifugation, the cell pellets were suspended in phosphate buffered saline (PBS) and counted using a hemocytometer. The final volume was adjusted to 5×10^6 cells/0.1 mL of PBS.
Tumor Cell Inoculation. Mice were anesthetized with inhaled isoflurane and then inoculated with U87MG tumor cells subcutaneously on the right hind leg with 0.1 mL of a single cell suspension in PBS using a sterile 1 mL syringe fitted with a 26 gauge needle. Following inoculation, the mice were returned to microisolator cages
Randomization of Animals. Following inoculation, tumors were allowed to grow to about 200 mm^3 prior to randomization. The typical number of days required for tumors to reach 200 mm^3 was 14-15 days. The tumor of each animal was measured and animals with tumors ranging between 175-250 mm^3 were included in the study. Animals from the pool were then distributed randomly into various cages and the cages were randomly assigned to vehicle, positive control, or test article groups. All of the mice were tagged with metal ear tags on the right ear.
Test Article Preparation and Administration. Suspensions of Compound 1 were prepared in aqueous 0.5% CMC and 0.25% Tween-80. The formulations were homogenized using a Teflon™ pestle and mortar (Potter-Elvehjem tissue grinder). Between the doses, the formulated compound was stored under constant stirring using a magnetic stirrer at 4° C. in the dark. The test article and vehicle were administered by oral gavage. The positive control, rapamycin, was prepared as solution in 2% ethanol, 45% polyethyleneglycol 400, and 53% saline and administered by IP injection. Sterile syringes and gavage needles were used for compound administration. All of the procedures including injections were done in biosafety cabinets disinfected with 70% ethanol prior to use.
Tumor Measurements. Tumor volumes were determined prior to the initiation of treatment and were considered as the starting volumes. Thereafter, tumors were measured twice a week for the duration of the study. The long and short axes of each tumor were measured using a digital caliper in millimeters. Tumor volumes were calculated using the formula: width^2×length/2. The tumor volumes were expressed in cubic millimeters (mm^3).
Tumor Growth Delay (TGD) Calculations. Tumor growth delay is the difference in days for treated versus control tumors to reach a volume of 1000 mm^3. The TGD was calculated from the data plotted in a graph format.
Body Weight Measurements. Initial body weights were recorded prior to the initiation of treatment using a digital scale. The percent body weight change during the course of the study was calculated using initial body weight measurements. Body weights of each animal were measured twice a week at the same time as the tumor measurements. Body weights were measured more frequently if significant decreases were noted during the course of the study.

`CO[C@H]1C[C@@H]2CC[C@@H](C)[C@@](O)(O2)C(=O)C(=O)N2CCCC[C@H]2C(=O)O[C@H]([C@H](C)C[C@@H]2CC[C@@H](O)[C@H](OC)C2)CC(=O)[C@H](C)/C=C(\C)[C@@H](O)[C@@H](OC)C(=O)[C@H](C)C[C@H](C)/C=C/C=C/C=C/1C` [rapamycin, reference compound] was tested, and the “change in body weight” value was “No significant change”.
